Structures can show the parent of a compound that is named as a salt. Where two headings read alike, the source gives them in different places.
Legend:
FTO [1] = target: T1, FTO (Homo sapiens, UniProt Q9C0B1); assay: HPLC-based inhibition assay for FTO, m3T substrate; assay type: biochemical
T1 construct: The human full length FTO construct used in this study; made in house; host or cells: E. coli BL21 (DE3) Rosetta T1R
Experimental: HPLC-based inhibition assays for FTO
The assay was modified from previously reported method.[17] It is performed in triplicate for each inhibitor, in a final reaction volume of 25 µL. Reaction consisted of FTO (1 µM), 2OG (50 µM), (NH4)2Fe(SO4)2·6H2O (50 µM), L-ascorbate (2 mM), 3-methylthymidine (m3T substrate, 10 µM) in 50 mM HEPES buffer, pH 7.5, and inhibitor at various concentrations (final DMSO concentration not more than 1% v/v of assay mix). The reaction was incubated at 4°C for 1 h, before analysis on a HPLC system. The substrate (m3T) and the demethylated product (thymidine) were separated using a Zorbax C18 column (4.6 mm x 250 mm) with a […]
flow rate of 1 mL/min at room temperature.
The percentage inhibition was estimated based on the peak areas of the 3-methylthymidine substrate and the thymidine product. For IC50 determination, eight different concentrations of […]
the variation in percentage demethylation at different inhibitor concentrations, using nonlinear regression, with normalized dose-response fit on GraphPad Prism 6.0™.
HPLC-based assay for FTO was also performed using an m6A-ssRNA as substrate. The assay was modified from previously reported method.[21] All reaction conditions are as described for the inhibition of m3T demethylation above, except that a 15-mer ssRNA with the sequence 5’-CUUGUCA(m6A)CAGCAGA-3’ (Yale University, W.M. Keck Foundation Biotechnology Resource Laboratory) was used as substrate (10 µM). The reaction was analysed on a bio-inert HPLC system. The m6A-ssRNA substrate and the corresponding demethylated product were separated using a Dionex DNAPac PA200 anion-exchange

FTO [2] = target: T1, FTO; assay: Differential scanning fluorimetry (DSF)-based binding assay, FTO; details: 100 μM compound, 2 μM protein; for ΔTm at 100 µM: 50 μM MnCl2, read-out: Tm shift (FTO); for Tm shift (FTO): 50 μM MnCl2
Experimental: (§1) Superdex-200 column (GE Healthcare) pre-equilibrated with 20 mM HEPES, pH 7.5, 300 mM NaCl, 10% (v/v) glycerol, 0.5 mM TCEP. […]
(§2) Differential scanning fluorimetry (DSF)-based binding assay
(§3) DSF-based binding assay was performed using a MiniOpticon™ Real-Time PCR Detection System (Bio-Rad), monitoring protein unfolding using SYPRO orange (Invitrogen) according […]
(§4) to the reported method.[16] […]
(§5) and emission respectively. Reaction mixes contained 2 μM protein, 50 μM MnCl2, 100 μM […]
(§6) Reagents were prepared in 50mM
(§7) HEPES buffer, pH 7.5 except metals, which were dissolved as 100 mM stocks in 20 mM HCl, then further diluted in MilliQ water. Compounds tested were prepared in 100% DMSO and added such that the final concentration of DMSO was not more than 1% v/v of assay […]
(§8) increased linearly by 1°C min -1. The software provided was used to perform global minimum subtraction. The inflection point, representing Tm, was calculated by fitting the Boltzmann equation to the sigmoidal curves obtained; data were processed using GraphPad Prism 6.0™.
(§9) The Tm shift caused by the addition of small molecules/ fragments was determined by subtraction of the “reference” Tm (protein incubated with metal and 1% v/v DMSO) from the Tm obtained in the presence of the compound. […]

AlkB = target: T2, AlkB (Escherichia coli, UniProt P05050); assay: Differential scanning fluorimetry (DSF)-based binding assay, AlkB; details: 100 μM compound, 2 μM protein; for ΔTm at 100 µM: 50 μM MnCl2, read-out: Tm shift (AlkB); for Tm shift (AlkB): 50 μM MnCl2
T2 construct: made in house; host or cells: E. coli BL21 (DE3) Rosetta T1R
T2 sequence (P05050 12-216): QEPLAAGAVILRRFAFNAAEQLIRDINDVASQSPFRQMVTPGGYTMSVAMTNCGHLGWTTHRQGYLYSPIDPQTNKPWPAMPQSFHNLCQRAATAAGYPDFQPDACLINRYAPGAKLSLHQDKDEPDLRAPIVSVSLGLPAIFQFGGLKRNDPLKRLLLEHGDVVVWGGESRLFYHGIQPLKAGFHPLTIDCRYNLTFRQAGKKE
Experimental: as §1, §2
(§10) DSF-based binding assay was performed using a MiniOpticon™ Real-Time PCR Detection System (Bio-Rad), monitoring protein unfolding using SYPRO orange (Invitrogen) according to the reported method.[16] FAM (492 nm) and ROX (610 nm) filters were used for excitation and emission respectively. Reaction mixes contained 2 μM protein, 50 μM MnCl2, 100 μM compounds, 5x SYPRO orange in a final volume of 50 μl. Reagents were prepared in 50mM HEPES buffer, pH 7.5 except metals, which were dissolved as 100 mM stocks in 20 mM HCl, then further diluted in MilliQ water. Compounds tested were prepared in 100% DMSO and added such that the final concentration of DMSO was not more than 1% v/v of assay […]
as §8, with “mix. Fluorescence readings were taken every 1°C in the range 25-95°C, with the temperature increased” for “increased”
(§11) The Tm shift caused by the addition of small molecules/ fragments was determined by subtraction of the “reference” Tm (protein incubated with metal and 1% v/v DMSO) from the Tm obtained in the presence of the compound. The assay was performed in triplicate for each inhibitor, with standard deviations typically < 1°C. […]

ALKBH2 = target: T3, ALKBH2 (Homo sapiens, UniProt Q6NS38); assay: Differential scanning fluorimetry (DSF)-based binding assay, ALKBH2; details: DSF, 100 μM compound, 2 μM protein, 50 μM MnCl2; for ΔTm at 100 µM: read-out: Tm shift (ALKBH2)
T3 construct: made in house; host or cells: E. coli BL21 (DE3)
T3 sequence (Q6NS38 56-258): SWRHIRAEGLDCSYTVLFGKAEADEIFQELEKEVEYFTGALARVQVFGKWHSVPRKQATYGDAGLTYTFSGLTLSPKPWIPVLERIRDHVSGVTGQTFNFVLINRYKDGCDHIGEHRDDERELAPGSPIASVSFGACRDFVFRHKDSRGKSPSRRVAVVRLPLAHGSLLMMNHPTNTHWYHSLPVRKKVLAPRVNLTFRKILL
Experimental: as §1, §2, §10
as §8, with “mix. Fluorescence readings were taken every 1°C in the range 25-95°C, with the temperature increased” for “increased”
as §11

ALKBH3 = target: T4, ALKBH3 (Homo sapiens, UniProt Q96Q83); assay: Differential scanning fluorimetry (DSF)-based binding assay, ALKBH3; details: DSF, 100 μM compound, 2 μM protein, 50 μM MnCl2; for ΔTm at 100 µM: read-out: Tm shift (ALKBH3)
T4 construct: Human ALKBH3 (encompassing residues 1- 286); purchased ProSpec-Tany Technogene Ltd, Israel
T4 sequence (Q96Q83 1-286): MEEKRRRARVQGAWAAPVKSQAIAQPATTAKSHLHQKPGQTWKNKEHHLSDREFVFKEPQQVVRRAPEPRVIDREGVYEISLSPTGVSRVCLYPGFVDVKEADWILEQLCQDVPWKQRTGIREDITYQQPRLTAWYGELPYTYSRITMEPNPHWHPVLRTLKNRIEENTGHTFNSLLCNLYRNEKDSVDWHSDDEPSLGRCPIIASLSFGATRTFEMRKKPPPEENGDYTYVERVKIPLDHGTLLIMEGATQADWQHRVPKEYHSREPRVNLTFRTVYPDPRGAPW
Experimental: as §1, §2, §10
as §8, with “mix. Fluorescence readings were taken every 1°C in the range 25-95°C, with the temperature increased” for “increased”
as §11

ALKBH5 = target: T5, ALKBH5 (Homo sapiens, UniProt Q6P6C2); assay: Differential scanning fluorimetry (DSF)-based binding assay, ALKBH5; details: 100 μM compound, 2 μM protein; for ΔTm at 100 µM: 50 μM MnCl2, read-out: Tm shift (ALKBH5); for Tm shift (ALKBH5): 50 μM MnCl2
T5 construct: pNIC28-Bsa4 ALKBH5 (encompassing residues 66-292); made in house; host or cells: E. coli BL21 (DE3) Rosetta T1R
T5 sequence (Q6P6C2 66-292): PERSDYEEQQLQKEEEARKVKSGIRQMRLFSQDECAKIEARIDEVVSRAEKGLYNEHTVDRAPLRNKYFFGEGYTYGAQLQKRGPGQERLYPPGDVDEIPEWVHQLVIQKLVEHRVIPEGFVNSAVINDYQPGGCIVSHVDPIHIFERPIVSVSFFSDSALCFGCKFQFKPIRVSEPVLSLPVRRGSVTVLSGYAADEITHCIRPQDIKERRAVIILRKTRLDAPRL
Experimental: as §1, §2, §3, §4, §5, §6, §7, §8, §9

[3] = HPLC-based demethylase assay, m3T substrate, read-out: IC50 (FTO)

T1 sequence (Q9C0B1 whole entry): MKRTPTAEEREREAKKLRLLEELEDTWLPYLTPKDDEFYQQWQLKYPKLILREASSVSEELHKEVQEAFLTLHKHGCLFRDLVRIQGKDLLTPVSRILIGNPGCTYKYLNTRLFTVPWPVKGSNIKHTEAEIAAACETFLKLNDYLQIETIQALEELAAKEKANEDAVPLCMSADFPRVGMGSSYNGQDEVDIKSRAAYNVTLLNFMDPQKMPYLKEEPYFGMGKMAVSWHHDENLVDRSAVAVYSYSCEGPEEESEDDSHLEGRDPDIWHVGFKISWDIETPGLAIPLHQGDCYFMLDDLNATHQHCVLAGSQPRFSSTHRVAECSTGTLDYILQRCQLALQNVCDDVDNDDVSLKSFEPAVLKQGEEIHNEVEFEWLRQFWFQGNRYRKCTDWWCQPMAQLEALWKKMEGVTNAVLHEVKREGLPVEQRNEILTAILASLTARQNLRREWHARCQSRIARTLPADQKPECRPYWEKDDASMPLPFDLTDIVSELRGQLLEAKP

Row | Molecule | Tm shift (FTO) (FTO [2]) | Tm shift (AlkB) (AlkB) | Tm shift (ALKBH2) (ALKBH2) | Tm shift (ALKBH3) (ALKBH3) | Tm shift (ALKBH5) (ALKBH5) | further results
1 | NNC(=O)CCC(=O)O [Compound 1, succinate hydrazide] |  |  |  |  |  | IC50 (FTO [1]; [3]): > 100 µM
2 | NNC(=O)/C=C/C(=O)O [Compound 2, fumarate hydrazide] |  |  |  |  |  | IC50 (FTO [1]; [3]): > 100 µM
3 | NNC(=O)/C=C\C(=O)O [Compound 3, maleate hydrazide] |  |  |  |  |  | IC50 (FTO [1]; [3]): > 100 µM
4 | O=C(O)/C=C/C(=O)NNC(=O)c1cnc2ccccc2c1 [Compound 8] |  |  |  |  |  | IC50 (FTO) (FTO [1]; HPLC-based demethylase assay, m3T substrate): low micromolar range
5 | CN(C)NC(=O)CCC(=O)O [daminozide, reference compound] |  |  |  |  |  | IC50 (FTO [1]): > 100 µM
6 | Cc1cn([C@H]2C[C@H](O)[C@@H](CO)O2)c(=O)n(C)c1=O [m3T, N ^3-methylthymidine] |  |  |  |  |  | ΔTm at 100 µM (FTO [2]): 12.1 °C; ΔTm at 100 µM (AlkB): 1.4 °C; ΔTm at 100 µM (ALKBH2): 1.1 °C; ΔTm at 100 µM (ALKBH3): 1.3 °C; ΔTm at 100 µM (ALKBH5): 1.1 °C
7 | CNc1ncnc2c1ncn2[C@@H]1O[C@H](CO)[C@@H](O)[C@H]1O [m6A, N ^6-methyladenosine] |  |  |  |  |  | ΔTm at 100 µM (FTO [2]): 2.4 °C; ΔTm at 100 µM (AlkB): 2.6 °C; ΔTm at 100 µM (ALKBH2): 1.3 °C; ΔTm at 100 µM (ALKBH3): 2.1 °C; ΔTm at 100 µM (ALKBH5): 9.8 °C
8 | ATTGTGG(A)CUGCAGC: unmethylated counterpart of the 15-mer m6A ssRNA | 3.4 °C | 2.4 °C | 1.2 °C | 3.5 °C | 3.6 °C | 
9 | ATTGTGG(T)CTGCAGC: unmethylated counterpart of the 15-mer m3T ssDNA | 3.2 °C | 2.7 °C | 1.3 °C | 2.4 °C | 3.4 °C | 
10 | ATTGTGG(m3T)CTGCAGC: 15-mer m3T-containing ssDNA | 3.0 °C | 3.1 °C | 1.5 °C | 2.9 °C | 2.6 °C | 
11 | ATTGTGG(m6A)CUGCAGC: 15-mer m6A-containing ssRNA | 3.0 °C | 2.7 °C | 1.0 °C | 3.0 °C | 3.5 °C | 
